From patent US20110082087A1, “COMPOUNDS FOR TREATING PAIN” (Edificio ICAT, priority 2008, published 2011)

How the values were obtained:
rats = assay: Comparison with morphine, behavioural nociception tests and behaviour observation; type: in vivo, rat; details: i.p.
Procedure: (§1) In vivo behavioural anti-nociception tests were carried out in rats (Wister, male). Unless otherwise stated, compounds were administered by intra-peritoneal (i.p.) injection. For most assays, the Tail Flick and the Hot Plate tests were used.
The analgesic potential of KTP-NH2 was also verified by comparison with well-known, widely-used analgesic molecules: ibuprofen and morphine.
From FIG. 12 it is possible to observe that the efficacy of 3 mg/100 g of KTP-NH2 is similar to that observed with 0.5 mg/100 g dose of morphine.

rats (Wister, male) [1] = assay: Tail Flick test; type: in vivo, rat
Procedure: as §1
The tail-flick test (D'Amour F. E., Smith D. L. 1941. A method for determining the loss of pain sensation. J Pharmacol Exp Ther 1941; 72:74-79) is a standard investigative tool for pain and analgesia assessment in rodents. It is based on a spinal reflex response of the tail to radiant heat. Pain sensitivity in rats was measured as they responded to the application of radiant heat to a small area of their tails. The rat's tail was placed over a window located on a platform and subjected to irradiation by an intense light beam (10 W). When the rat feels discomfort, it flicks its tail which automatically stops the timer. The reaction time from activation of the light beam to the tail flick is automatically presented on a digital display. A cut-off time of 24 s was applied. Animal reaction time is a measurement of animal resistance to pain and is used to measure efficacy of analgesics.

rats (Wister, male) [2] = assay: Hepatotoxicity markers in plasma; type: in vivo, rat
Procedure: The toxicological studies were carried out with rats (Wister, male) injected i.p. once a day with 3.23 mg/100 g body mass during seven days.
Liver is the major organ of toxicity. Blood samples were collected and the following hepatotoxicity markers were assayed in the plasma: • Alanine transaminase (ALT), • Aspartate transaminase (AST) • Alkaline phosphatase (ALP) • Total bilirubin (TBILI) • Gamma glutamyl transpeptidase (GGT)
Increased levels of the liver enzymes ALT, AST, ALP and GGT in the plasma would indicate lesions in liver. Increased RBL would be a sign of faulty bilirubin production/hemolysis and/or bilirubin metabolism (in liver).

[3] = Acrylamide quenching studies (aggregation in aqueous medium); type: physicochemical; details: acrylamide quenching of tyrosine fluorescence
Procedure: The aggregation of molecules in aqueous medium, as a result of poor solubility, for example, is a critical parameter in pharmacology. […] For this purpose, acrylamide quenching studies were performed (Lakowicz J. R 1999. Principles of Fluorescence spectroscopy, Second Edition ed., Kluwer Academic/Plenum Publishers, New York; Coutinho A and Prieto M. 1993. Ribonuclease T1 and alcohol dehydrogenase fluorescence quenching by acrylamide: A laboratory experiment for undergraduate students J. Chem. Education, 70: 425-428). Acrylamide is an aqueous quencher of tyrosine fluorescence. When fluorescent peptides aggregate, the phenolic groups tend to cluster and remain inaccessible to hydrophilic molecules. Conversely, when no aggregation occurs, all tyrosine residues are exposed to the solvent and, therefore, accessible to the contact and quenching by acrilamide. […] The fluorescence spectra were not concentration-dependent (not shown) and there was a linear dependence of fluorescence intensity on concentration (not shown).

rats (Wister, male) [4] = assay: Increasing-temperature Hot Plate test; type: in vivo, rat
Procedure: as §1
The hot-plate test (Eddy N. B and Leimbach D. 1953. Synthetic analgesics II. Dithienylbutenyl and dithienylbutylamines J. Pharmacol. Exp. Ther. 45: 339) evaluates a supraspinally integrated response in the form of thermal pain reflexes due to footpad contact with a heated surface. During the experiments, the animal is confined in a removable clear acrylic compartment where the latency time to the first hind paw or/and jumping responses are measured. […] The response is the licking of the hindpaw, and the corresponding plate temperature represents the recorded nociceptive end-point. The advantage of Increasing-Temperature Hot-Plate test over the standard constant-temperature hot-plate test is the higher sensitivity and the lack of influences of pre-exposure to the hot-plate before testing. Animal reaction temperature is a measurement of animal resistance to pain and is used to measure efficacy of analgesics.

monoarthritis rats = assay: CFA-induced monoarthritis, Hargreaves and Tail Flick tests; type: in vivo, rat
Text: The subcutaneous intraplantar injection of complete Freund's adjuvant (CFA) into the local area of an animal can cause severe inflammatory pain around the injected area. This CFA-induced inflammatory pain has been widely used as a kind of pain model in the field of pain research since it was reported. Inflammatory pain was induced by an injection of complete Freund's adjuvant into the right hindpaw of the rats (S. H. Butler, F. Godefroy, J. M. Besson and J. Weilfugazza. 1992. A limited arthritic model for chronic pain studies in the rat. Pain, 48: 73-81). The paw withdrawal latency was used to assess the inflammatory pain according to the method of Hargreaves et al. (Hargreaves K, Dubner R, Brown F, Flores C, and Joris J. 1988. A new and sensitive method for measuring thermal nociception in cutaneous hyperalgesia. Pain 32: 77-88, 1988). The CFA-injected area of the right paw was placed on a constant-intensity radiant heat source and the time of paw-withdrawal latency was measured by observing the animal's paw-withdrawal response after applying initial heat to the left or right paws. Additionally, the Tail Flick test was performed in order to assess the secondary hyperalgesia.

## N=C(N)NCCC[C@H](NC(=O)[C@@H](N)Cc1ccc(O)cc1)C(N)=O [KTP-NH2, L-Tyr-L-Arg-NH2]
rats; 3 mg/100 g KTP-NH2 vs 0.5 mg/100 g morphine
  analgesic efficacy compared with morphine: similar
rats; rats
  alterations in behavior (secondary effects): no such secondary effects were observed
Rats (Wister, male) [1]; Tail Flick, 3.23 mg/100 g once a day for seven days vs single injection
  response after chronic administration: very similar profile to the control
Rats (Wister, male) [1]; Tail Flick, i.p.
  analgesic effect compared with ibuprofen: more durable effect
Rats (Wister, male) [1]; Tail Flick, i.p., rat
  duration of anti-nociceptive response: 45 min
  smallest dose tested with statistical significance: 2.45 mg for 100 g of body mass
Rats (Wister, male) [1]; Tail Flick, oral, rat
  analgesic efficacy after oral administration: slight delay of the onset of effect
Rats (Wister, male) [1]; i.p., rat
  effect on tail flick latency: clear anti-nociceptive response
Rats (Wister, male) [1]; tail-flick, naloxone 0.5 mg/100 g 10 min before, KTP-NH2 3 mg/100 g
  analgesia after pretreatment with naloxone: completely antagonized
Rats (Wister, male) [2]; i.p. once a day 3.23 mg/100 g for seven days
  GGT in plasma: trace amounts, below the detection limit
Rats (Wister, male) [2]; i.p. once a day 3.23 mg/100 g for seven days vs control
  hepatotoxicity markers AST, ALT, ALP, total bilirubin in plasma: no toxic effects were detected
[3]
  aggregation / solubility in aqueous medium: favourable solubility properties
Rats (Wister, male) [4]; Hot Plate, i.p.
  analgesic effect compared with ibuprofen: more pronounced effect
Rats (Wister, male) [4]; Hot Plate, i.p., rat
  duration of anti-nociceptive response: 30 min
  smallest dose tested with statistical significance: 1.67 mg for 100 g of body mass
Rats (Wister, male) [4]; Hot Plate, oral, rat
  analgesic efficacy after oral administration: slight delay of the onset of effect
Rats (Wister, male) [4]; i.p., rat
  effect in hot plate test: clear anti-nociceptive response
Monoarthritis rats
  analgesic effect in chronic inflammatory pain: efficacy
